Assay results reported in patent US8022225B2, “Triazole derivative” (Taisho Pharmaceutical Co., Ltd, priority 2004, dated 2011).

How the values were obtained:
human Edg-1(S1P1) [1] = target: T1, human Edg-1(S1P1) (Homo sapiens, UniProt P21453); assay: Cell system binding test: inhibition of [3H]-S1P binding to Edg-1(S1P1) gene transferred HEK-293 cells; settings: [3H]-S1P 10 nM
T1 construct: expressed in transfected cells; host or cells: HEK-293

human Edg-1(S1P1) [2] = target: T1, human Edg-1(S1P1); assay: Membrane system binding test: inhibition of [33P]-S1P binding to the membrane fraction of Edg-1(S1P1) gene transferred HEK-293 cells; settings: [33P]-S1P 0.1 nM
Summary of the method: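 Compound tested at 10^−5 M final (0.1% DMSO) for blocking 0.1 nM [^33P]-S1P binding to S1P1-expressing HEK-293 membranes, 30 °C, 1 h. Radioactivity retained on filters was counted, and percent inhibition derived relative to vehicle binding, correcting for the background of non-transfected HEK-293 membranes.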

[3] = 10 μM compound, read-out: Cell system binding test % inhibition (10 μM)
[4] = 10 μM compound, membrane fraction of Edg-1(S1P1) gene transferred HEK-293 cells, read-out: Membrane system binding test % inhibition (10 μM)
[5] = 10 μM compound, membrane fraction of Edg-1(S1P1) gene transferred HEK-293 cells
[6] = test compound 10^-5 M, 1 hour, read-out: Edg-1(S1P1) binding inhibition rate (cell system binding test)
[7] = test compound 10^-5 M, 1 hour at 30° C., HEK-293 membrane fraction, read-out: Edg-1(S1P1) binding inhibition rate (membrane system binding test)

T1 sequence (P21453 whole entry): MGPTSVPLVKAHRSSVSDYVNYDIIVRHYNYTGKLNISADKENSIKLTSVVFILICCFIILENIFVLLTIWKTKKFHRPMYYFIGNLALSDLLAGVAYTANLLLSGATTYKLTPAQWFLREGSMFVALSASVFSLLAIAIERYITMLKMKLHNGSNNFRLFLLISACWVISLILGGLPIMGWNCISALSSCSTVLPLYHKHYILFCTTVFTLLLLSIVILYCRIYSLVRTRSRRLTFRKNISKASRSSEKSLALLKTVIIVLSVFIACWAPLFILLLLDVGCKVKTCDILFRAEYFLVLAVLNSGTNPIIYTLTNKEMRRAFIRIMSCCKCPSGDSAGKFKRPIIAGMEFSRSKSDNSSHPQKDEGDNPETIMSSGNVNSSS

inhibition at 10 µM (human Edg-1(S1P1) [1]; [3]) [%] | inhibition at 10 µM (human Edg-1(S1P1) [2]; [4]) [%] | further results | Compound
91.9 | 83.7 |  | CCn1c(OCC(F)(F)F)nnc1[C@@H](C)NS(=O)(=O)c1ccc(Cl)cc1 [Compound 395]
87.9 | 83.3 |  | CCCCOc1nnc([C@@H](C)NS(=O)(=O)c2ccc(Cl)cc2)n1CC [Compound 396]
88.6 | 92 |  | CCn1c(OCCCC(F)(F)F)nnc1[C@@H](C)NS(=O)(=O)c1ccc(Cl)cc1 [Compound 397]
85.8 | 93.5 |  | CCn1c(OCCCOC)nnc1[C@@H](C)NS(=O)(=O)c1ccc(Cl)cc1 [Compound 398]
88.5 | 90.9 |  | CCOc1nnc([C@@H](C)NS(=O)(=O)c2ccc(F)c(C(F)(F)F)c2)n1CC [Compound 399]
92.8 | 84.8 |  | CCOc1nnc([C@@H](C)NS(=O)(=O)c2ccc(Br)s2)n1CC [Compound 400]
92.8 | 87.2 |  | CCOc1nnc([C@@H](C)NS(=O)(=O)c2ccc(Cl)c(Cl)c2)n1CC [Compound 401]
90.4 | 95.8 |  | CCOc1nnc([C@@H](C)NS(=O)(=O)c2ccc3ccccc3c2)n1CC [Compound 402]
86.1 | 85.9 |  | CCOc1nnc([C@@H](C)NS(=O)(=O)c2ccc(F)c(F)c2)n1CC [Compound 403]
91.2 | 90 |  | CCOc1nnc([C@@H](C)NS(=O)(=O)c2ccc(C)c(Cl)c2)n1CC [Compound 404]
90.4 | 88.2 |  | CCOc1nnc([C@@H](C)NS(=O)(=O)c2ccc(Br)c(F)c2)n1CC [Compound 405]
90.1 | 92.5 |  | CCOc1nnc([C@@H](C)NS(=O)(=O)c2cc3ccccc3s2)n1CC [Compound 406]
94.7 | 81.9 |  | CCOc1nnc([C@@H](C)NS(=O)(=O)c2ccc(F)c(Cl)c2)n1CC [Compound 407]
88.5 | 84.9 |  | CCOc1nnc([C@@H](C)NS(=O)(=O)c2cccc(Br)c2)n1CC [Compound 408]
88.1 | 92.2 |  | CCOc1nnc([C@@H](C)NS(=O)(=O)c2ccc(Br)cc2)n1CC [Compound 409]
96.4 | 86.1 |  | CCOc1nnc([C@@H](C)NS(=O)(=O)c2ccc(C)c(C)c2)n1CC [Compound 410]
95.9 | 81.8 |  | CCOc1nnc([C@@H](C)NS(=O)(=O)c2ccc(C)c(F)c2)n1CC [Compound 411]
99.9 | 89.1 |  | CCOc1nnc([C@@H](C)NS(=O)(=O)c2ccc(Br)c(Br)c2)n1CC [Compound 412]
100 | 93.8 |  | CCOc1nnc([C@@H](C)NS(=O)(=O)c2ccc([N+](=O)[O-])cc2)n1CC [Compound 413]
101 | 81 |  | CCOc1nnc([C@@H](C)NS(=O)(=O)c2cccc(C(F)(F)F)c2)n1CC [Compound 414]

inhibition at 10 µM (human Edg-1(S1P1) [1]; [3]) [%] | inhibition at 10 µM (human Edg-1(S1P1) [2]; [4]) [%] | further results | Compound
99.6 | 75.1 |  | CCOc1nnc([C@@H](C)NS(=O)(=O)c2cccc(OC(F)(F)F)c2)n1CC [Compound 415]
100 | 77.7 |  | CCOc1nnc([C@@H](C)NS(=O)(=O)c2cccc(OC(F)F)c2)n1CC [Compound 416]
97.9 | 64.8 |  | CCOc1nnc([C@@H](C)NS(=O)(=O)c2cccc(OC)c2)n1CC [Compound 417]
99.5 | 70.4 |  | CCOc1nnc([C@@H](C)NS(=O)(=O)c2ccc3c(c2)OCO3)n1CC [Compound 418]
93.3 | 50.1 |  | CCOc1nnc([C@@H](C)NS(=O)(=O)c2ccc(OC)cc2)n1CC [Compound 420]
95.7 | 101 |  | CCn1c(OC)nnc1[C@@H](Cc1ccc(Cl)cc1)NS(=O)(=O)c1ccc(Cl)cc1 [Compound 426]
97.5 | 67 |  | CCn1c(OC)nnc1[C@@H](C)NS(=O)(=O)c1cc2ccccc2o1 [Compound 427]
101 | 99.2 |  | CCOc1nnc([C@@H](C)NS(=O)(=O)c2ccc(Br)c(C)c2)n1CC [Compound 428]
95.1 | 74.2 |  | CCOc1nnc([C@@H](C)NS(=O)(=O)c2ccc(C)cc2)n1CC [Compound 429]
97.9 | 89.2 |  | CCOc1nnc([C@@H](C)NS(=O)(=O)c2cccc(Cl)c2C)n1CC [Compound 430]
98 | 94.6 |  | CCOc1nnc([C@@H](C)NS(=O)(=O)c2ccc3nsnc3c2)n1CC [Compound 431]
92.2 | 82.9 |  | CCOc1nnc([C@@H](C)NS(=O)(=O)c2ccc(C(F)(F)F)cc2)n1CC [Compound 432]
93.8 | 70.2 |  | CCOc1nnc([C@@H](C)NS(=O)(=O)c2cc(F)cc(F)c2)n1CC [Compound 433]
95.6 | 90.5 |  | CCOc1nnc([C@@H](C)NS(=O)(=O)c2cc(Cl)c(Cl)s2)n1CC [Compound 434]
93.7 | 86.4 |  | CCOc1nnc([C@@H](C)NS(=O)(=O)c2ccc(I)cc2)n1CC [Compound 435]
94.5 | 49 |  | CCOc1nnc([C@@H](C)NS(=O)(=O)c2ccc(F)cc2)n1CC [Compound 436]
101 | 93.9 |  | CCOc1nnc([C@@H](C)NS(=O)(=O)c2ccc(Br)c(C(F)(F)F)c2)n1CC [Compound 437]
95 | 100 |  | CCn1c(OC)nnc1[C@@H](Cc1ccccc1Cl)NS(=O)(=O)c1ccc(Cl)cc1 [Compound 439]
95.1 | 102 |  | CCn1c(OC)nnc1[C@@H](Cc1cccc(Cl)c1)NS(=O)(=O)c1ccc(Cl)cc1 [Compound 440]
31.3 | 43 |  | CCn1c(OC)nnc1[C@@H](C)NS(=O)(=O)c1ccc2[nH]c(=O)oc2c1 [Compound 443]

inhibition at 10 µM (human Edg-1(S1P1) [1]; [3]) [%] | inhibition at 10 µM (human Edg-1(S1P1) [2]; [4]) [%] | further results | Compound
18.2 | 60.9 |  | CCn1c(OC)nnc1[C@@H](C)NS(=O)(=O)c1ccc(NC(C)=O)cc1 [Compound 444]
93 | 81.6 |  | CCOc1nnc([C@@H](C)NS(=O)(=O)c2cccc(Cl)c2)n1CC [Compound 445]
91.4 | 72.5 |  | CCOc1nnc([C@@H](C)NS(=O)(=O)c2ccc(CC)cc2)n1CC [Compound 446]
 |  | Cell system binding test % inhibition (10 μM) (human Edg-1(S1P1) [1]; 10 μM compound): 89.2%; Membrane system binding test % inhibition (10 μM) (human Edg-1(S1P1) [2]; [5]): 72.2% | CCOc1nnc([C@@H](C)NS(=O)(=O)c2cccc(OC)c2)n1CC [Compound 447]
 |  | Cell system binding test % inhibition (10 μM) (human Edg-1(S1P1) [1]; 10 μM compound): 89.7%; Membrane system binding test % inhibition (10 μM) (human Edg-1(S1P1) [2]; [5]): 99.6% | CCn1c(OC)nnc1[C@@H](C)NS(=O)(=O)c1ccc(Br)c(Br)c1 [Compound 448]
 |  | Cell system binding test % inhibition (10 μM) (human Edg-1(S1P1) [1]; 10 μM compound): 91.6%; Membrane system binding test % inhibition (10 μM) (human Edg-1(S1P1) [2]; [5]): 65.9% | CCn1c(OC)nnc1[C@@H](C)NS(=O)(=O)c1cc(F)c(Br)cc1F [Compound 449]
92.3 | 93.8 |  | CCOc1nnc([C@@H](C)NS(=O)(=O)c2cc(F)c(F)c(F)c2)n1CC [Compound 450]
94.2 | 62.7 |  | CCOc1nnc([C@@H](C)NS(=O)(=O)c2cc(F)c(Br)cc2F)n1CC [Compound 451]
 |  | inhibition at 10 µM (human Edg-1(S1P1) [1]; [6]): 91.8%; inhibition at 10 µM (human Edg-1(S1P1) [2]; [7]): 89.7% | CCn1c(OC(C)C)nnc1[C@@H](C)NS(=O)(=O)c1ccc(Br)s1 [Compound 452]
 |  | inhibition at 10 µM (human Edg-1(S1P1) [1]; [6]): 89.4%; inhibition at 10 µM (human Edg-1(S1P1) [2]; [7]): 97.1% | CCn1c(OC(C)C)nnc1[C@@H](C)NS(=O)(=O)c1ccc(Cl)c(Cl)c1 [Compound 453]
 |  | inhibition at 10 µM (human Edg-1(S1P1) [1]; [6]): 91.7%; inhibition at 10 µM (human Edg-1(S1P1) [2]; [7]): 92.6% | CCn1c(OC(C)C)nnc1[C@@H](C)NS(=O)(=O)c1ccc(C)c(Cl)c1 [Compound 454]
 |  | inhibition at 10 µM (human Edg-1(S1P1) [1]; [6]): 93.2%; inhibition at 10 µM (human Edg-1(S1P1) [2]; [7]): 91.7% | CCn1c(OC(C)C)nnc1[C@@H](C)NS(=O)(=O)c1ccc(Br)c(F)c1 [Compound 455]
 |  | inhibition at 10 µM (human Edg-1(S1P1) [1]; [6]): 87.4%; inhibition at 10 µM (human Edg-1(S1P1) [2]; [7]): 89% | CCn1c(OC(C)C)nnc1[C@@H](C)NS(=O)(=O)c1ccc(F)c(Cl)c1 [Compound 456]
 |  | inhibition at 10 µM (human Edg-1(S1P1) [1]; [6]): 85.4%; inhibition at 10 µM (human Edg-1(S1P1) [2]; [7]): 101% | CCn1c(OC(C)C)nnc1[C@@H](C)NS(=O)(=O)c1ccc(Br)c(C)c1 [Compound 457]
 |  | inhibition at 10 µM (human Edg-1(S1P1) [1]; [6]): 86.5%; inhibition at 10 µM (human Edg-1(S1P1) [2]; [7]): 91.9% | CCn1c(OC(C)C)nnc1[C@@H](C)NS(=O)(=O)c1cc(F)c(F)c(F)c1 [Compound 458]
 |  | inhibition at 10 µM (human Edg-1(S1P1) [1]; [6]): 89.9%; inhibition at 10 µM (human Edg-1(S1P1) [2]; [7]): 68.5% | CCn1c(OC)nnc1[C@@H](COC)NS(=O)(=O)c1ccc(Cl)cc1 [Compound 459]
 |  | inhibition at 10 µM (human Edg-1(S1P1) [1]; [6]): 94.5%; inhibition at 10 µM (human Edg-1(S1P1) [2]; [7]): 76.3% | CCn1c(OC(C)C)nnc1[C@@H](C)NS(=O)(=O)c1cccc(Br)c1 [Compound 460]
 |  | inhibition at 10 µM (human Edg-1(S1P1) [1]; [6]): 87.9%; inhibition at 10 µM (human Edg-1(S1P1) [2]; [7]): 89.5% | CCn1c(OC(C)C)nnc1[C@@H](C)NS(=O)(=O)c1ccc(Br)cc1 [Compound 461]
